Test [1] can be described thus: Inhibition of 2.5 ng recombinant FLAG-tagged Plasmodium vivax PMV expressed in High Five insect cells assessed as fluorogenic substrate cleavage using 12 uM DABCYL-RNKRTLAQKQ-E-EDANS as fluorogenic substrate after 120 mins by fluorescence plate reader method.
Test [2] concerns Plasmodium falciparum. The test can be described thus: Antimalarial activity against ring-stage Plasmodium falciparum 3D7 infected in human erythrocytes assessed as parasite viability after 72 hrs by LDH assay. As to conditions: 3D7, 72 h. In kind it is functional, organism-based.
The subject of the next test is HepG2. As to the kind of experiment: Cytotoxicity against human HepG2 cells assessed as cell viability after 48 hrs by Cell Titer-Glo assay. As to conditions: HepG2, 48 h. In kind it is cell-based. (In ATP-based viability assays light output follows the ATP content of the culture.)
The target in test [3] is Plasmepsin V (Plasmodium falciparum (isolate 3D7)) (UniProt Q8I6Z5). The test can be described thus: Inhibition of PMV in trophozoite stage of Plasmodium flaciparum 3D7 expressing PfEMP3-GFP infected in human erythrocytes assessed as PEXEL processing of PfEMP3 at 20 uM after 5 hrs by Western blot method. In kind it is cell-based. As to conditions: Plasmodium falciparum 3D7. On the technique in general: A western blot detects proteins with antibodies after separation by electrophoresis.

In test [4] the test system is Plasmodium falciparum. The test can be described thus: Antimalarial activity against Plasmodium falciparum 3D7 infected in human erythrocytes assessed as parasite viability after 72 hrs by flow cytometry. In kind it is functional, organism-based. The note with it: 3D7, 72 h. Background: In flow cytometry, cells or beads pass a laser one at a time.
A further test has as its target Plasmepsin V (Plasmodium falciparum (isolate 3D7), UniProt Q8I6Z5). The test can be described thus: Inhibition of Plasmodium falciparum PMV assessed as fluorogenic substrate cleavage using DABCYL-RNKRTLAQKQ-E-EDANS as fluorogenic substrate after 120 mins by fluorescence plate reader method.
A short description of test [5]: Ratio of EC50 for ring-stage Plasmodium falciparum 3D7 to IC50 for recombinant FLAG-tagged Plasmodium vivax PMV.
Test [6] can be described thus: Inhibition of 1 ng recombinant FLAG-tagged Plasmodium vivax PMV expressed in High Five insect cells assessed as fluorogenic substrate cleavage using 7.5 uM DABCYL-RNKRTLAQKQ-E-EDANS as fluorogenic substrate after 120 mins by fluorescence plate reader method.
Test [7] concerns the target Plasmepsin V (Plasmodium falciparum (isolate 3D7)) (UniProt Q8I6Z5). The test can be described thus: Inhibition of PMV in trophozoite stage of Plasmodium flaciparum 3D7 expressing PfEMP3-GFP infected in human erythrocytes assessed as PEXEL processing of PfEMP3 at 1 to 20 uM after 5 hrs by Western blot method. The format is cell-based. The note with it: Plasmodium falciparum 3D7.

As usually defined, the IC50 is the concentration needed to halve the response being measured. As a reminder, the EC50 is the concentration that produces a half-maximal response.

Each structure is given as a SMILES string. Active and inactive are the calls of the source. No cut-off for these calls is given here. Non-standard residues stand in square brackets, D forms with d. Residues, ends and D or L forms follow the SMILES beside them. *: point of attachment. Phe(4-guanidino) = N=C(N)Nc1ccc(C[C@H](N)C(=O)O)cc1; Arg(NO2) = N=C(NCCC[C@H](N)C(=O)O)N[N+](=O)[O-]; Phe(4-NH2) = Nc1ccc(C[C@H](N)C(=O)O)cc1; Sta = CC(C)C[C@H](N)[C@@H](O)CC(=O)O; Arg(Me) = CNC(=N)NCCC[C@H](N)C(=O)O; Cit = NC(=O)NCCC[C@H](N)C(=O)O; NHPhenethyl = c1ccc(CCN*)cc1; Orn = NCCC[C@H](N)C(=O)O; Cbz = O=C(OCc1ccccc1)*; Ms = CS(=O)(=O)* Where only a bound is given, the exact number is not on record here.

Plasmepsin V (Plasmodium falciparum (isolate 3D7)), sequence (Q8I6Z5 whole entry, looked up): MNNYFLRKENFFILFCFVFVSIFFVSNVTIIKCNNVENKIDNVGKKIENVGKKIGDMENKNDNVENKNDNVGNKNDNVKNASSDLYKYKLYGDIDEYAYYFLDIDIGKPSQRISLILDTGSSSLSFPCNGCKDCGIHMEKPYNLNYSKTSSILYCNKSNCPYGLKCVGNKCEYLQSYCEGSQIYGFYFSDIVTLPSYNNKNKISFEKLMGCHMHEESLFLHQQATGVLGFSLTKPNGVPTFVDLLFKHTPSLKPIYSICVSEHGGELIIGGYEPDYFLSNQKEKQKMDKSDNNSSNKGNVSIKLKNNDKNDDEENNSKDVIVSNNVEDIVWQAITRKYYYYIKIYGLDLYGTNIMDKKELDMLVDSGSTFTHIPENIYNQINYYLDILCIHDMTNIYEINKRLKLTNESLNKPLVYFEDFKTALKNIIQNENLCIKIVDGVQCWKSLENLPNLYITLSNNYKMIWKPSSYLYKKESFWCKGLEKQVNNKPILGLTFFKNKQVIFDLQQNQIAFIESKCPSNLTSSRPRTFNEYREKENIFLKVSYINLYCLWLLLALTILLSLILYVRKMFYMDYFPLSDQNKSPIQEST
Plasmepsin V, sequence (Q8I6Z5 whole entry): as the sequence (Q8I6Z5 whole entry, looked up) above

Turning to `CC(C)C[C@H](NC(=O)[C@@H](NC(=O)[C@H](CCCN(C)C(=N)N)NC(=O)OCc1ccccc1)C(C)C)[C@@H](O)CC(=O)NCCc1ccccc1`, in test [1], the IC50 was over 50 µM.
For `CC(C)C[C@H](NC(=O)[C@@H](NC(=O)[C@H](CCCNC(=N)N[N+](=O)[O-])NC(=O)OCc1ccccc1)C(C)C)[C@@H](O)CC(=O)NCCc1ccccc1` (Cbz-[Arg(NO2)]-Val-[Sta]-NHPhenethyl), the IC50 in test [1] is over 50 µM.
As to `CC(C)C[C@H](NC(=O)[C@@H](NC(=O)[C@H](Cc1ccc(N)cc1)NC(=O)OCc1ccccc1)C(C)C)[C@@H](O)CC(=O)NCCc1ccccc1` (Cbz-[Phe(4-NH2)]-Val-[Sta]-NHPhenethyl), the IC50 in test [1] was over 50 µM.
Still for that read-out and setting: with `CC(C)C[C@H](NC(=O)[C@@H](NC(=O)[C@H](CCCNC(N)=O)NC(=O)OCc1ccccc1)C(C)C)[C@@H](O)CC(=O)NCCc1ccccc1` (Cbz-[Cit]-Val-[Sta]-NHPhenethyl) the figure was over 50 µM; with `CC(=O)NCCC[C@H](NC(=O)OCc1ccccc1)C(=O)N[C@H](C(=O)N[C@@H](CC(C)C)[C@@H](O)CC(=O)NCCc1ccccc1)C(C)C` (Cbz-[Orn](Ac)-Val-[Sta]-NHPhenethyl), over 50 µM.
On to `CC(C)C[C@H](NC(=O)[C@@H](NC(=O)[C@H](CCCNC(C)C)NC(=O)OCc1ccccc1)C(C)C)[C@@H](O)CC(=O)NCCc1ccccc1`, for which the IC50 in [1] is over 50 µM.
On to `CC(C)C[C@H](NC(=O)[C@@H](NC(=O)[C@H](CCC(=O)NC(=N)N)NC(=O)OCc1ccccc1)C(C)C)[C@@H](O)CC(=O)NCCc1ccccc1`, for which the EC50 in the test with Plasmodium falciparum [2] was 3.33 µM; in the test on HepG2, over 50 µM. In addition, the IC50 in test [1] turned out to be 41.6 µM.
As for `CC(C)C[C@H](NC(=O)[C@@H](NC(=O)[C@H](Cc1cccc(N)c1)NC(=O)OCc1ccccc1)C(C)C)[C@@H](O)CC(=O)NCCc1ccccc1`, the IC50 in [1] was over 50 µM.
Still for that read-out and setting: the figure for `CC(C)C[C@H](NC(=O)[C@@H](NC(=O)[C@H](Cc1cccc(NC(=N)N)c1)NC(=O)OCc1ccccc1)C(C)C)[C@@H](O)CC(=O)NCCc1ccccc1` is over 50 µM.
As for `CC(C)C[C@H](NC(=O)[C@@H](NC(=O)[C@H](CCCNC(=N)N)NC(=O)OCc1ccccc1)C(C)C)[C@@H](O)CC(=O)NCCc1ccccc1` (Cbz-Arg-Val-[Sta]-NHPhenethyl), the EC50 in the test on Plasmodium falciparum [2] was 3.26 µM; with HepG2, over 50 µM. Also, in [1], the 50% inhibitory concentration (IC50) turned out to be 0.128 µM. For the same compound, in test [3], the inhibition result was “Active”.
For the compound `CC(=N)NCCC[C@H](NC(=O)OCc1ccccc1)C(=O)N[C@H](C(=O)N[C@@H](CC(C)C)[C@@H](O)CC(=O)NCCc1ccccc1)C(C)C`, the values for the EC50 with Plasmodium falciparum [2] and in the test on HepG2 were 21.4 µM and over 50 µM, respectively. Also, the IC50 in [1] was determined as 40.3 µM. In addition, the inhibition entry in test [3] is “inactive”.
With `CC(C)C[C@H](NC(=O)[C@@H](NC(=O)[C@H](Cc1ccc(NC(=N)N)cc1)NC(=O)OCc1ccccc1)C(C)C)[C@@H](O)CC(=O)NCCc1ccccc1` (Cbz-[Phe(4-guanidino)]-Val-[Sta]-NHPhenethyl), in test [1], the IC50 was over 50 µM.
Consider `CC(C)C[C@H](NC(=O)[C@@H](NC(=O)[C@H](CCONC(=N)N)NC(=O)OCc1ccccc1)C(C)C)[C@@H](O)CC(=O)NCCc1ccccc1`, for which the EC50 is 400 nM in the test on Plasmodium falciparum [4], 0.229 µM in the test with Plasmodium falciparum [2] and over 50 µM with HepG2. The IC50 on Plasmepsin V came to 0.8 nM; in test [1], 0.01 µM; in test [6] it was 1.6 nM. In addition, in test [5], the Ratio was found to be 25. For the same compound, the inhibition result in test [7] was “Active”.
Consider `CC(C)C[C@H](NC(=O)[C@@H](NC(=O)[C@H](CCCNS(C)(=O)=O)NC(=O)OCc1ccccc1)C(C)C)[C@@H](O)CC(=O)NCCc1ccccc1` (Cbz-[Orn](Ms)-Val-[Sta]-NHPhenethyl), for which, in test [1], the half-maximal inhibitory concentration (IC50) is over 50 µM.
`CC(C)C[C@H](NC(=O)[C@@H](NC(=O)[C@H](CCCNC(=N)NC#N)NC(=O)OCc1ccccc1)C(C)C)[C@@H](O)CC(=O)NCCc1ccccc1`: the IC50 in test [1] is over 50 µM.
Consider `CCN(CC)CCCC(C)Nc1ccnc2cc(Cl)ccc12` (stereo not given) [CHLOROQUINE], for which, in the test on Plasmodium falciparum [2], the EC50 stood at 0.012 µM.
Turning to `CC(C)C[C@H](NC(=O)[C@@H](NC(=O)[C@H](CCCNC(=N)NO)NC(=O)OCc1ccccc1)C(C)C)[C@@H](O)CC(=O)NCCc1ccccc1`, the EC50 is 3.97 µM with Plasmodium falciparum [2] and over 50 µM in the test on HepG2. The IC50 in test [1] stood at 3.88 µM. The inhibition result in test [3] was “inactive”.
`CONC(=N)NCCC[C@H](NC(=O)OCc1ccccc1)C(=O)N[C@H](C(=O)N[C@@H](CC(C)C)[C@@H](O)CC(=O)NCCc1ccccc1)C(C)C`: the EC50 is 1.97 µM in the test with Plasmodium falciparum [2] and over 50 µM with HepG2. In addition, the half-inhibitory concentration (IC50) in [1] stood at 18 µM.
Turning to `CC(C)C[C@H](NC(=O)[C@@H](NC(=O)[C@H](CCONC(=N)N)NC(=O)OCc1ccccc1)C(C)C)[C@H](O)CC(=O)NCCc1ccccc1`, the EC50 is 5.65 µM in the test on Plasmodium falciparum [2] and over 50 µM with HepG2. For the same compound, in [1], the IC50 came to 2.74 µM. The inhibition result in test [3] was “inactive”.
Consider `CNC(=N)NCCC[C@H](NC(=O)OCc1ccccc1)C(=O)N[C@H](C(=O)N[C@@H](CC(C)C)[C@@H](O)CC(=O)NCCc1ccccc1)C(C)C` (Cbz-[Arg(Me)]-Val-[Sta]-NHPhenethyl), for which the EC50 with Plasmodium falciparum [2] is 12.7 µM; with HepG2, over 50 µM. Also, the IC50 in test [1] worked out at 37.7 µM.
